This note sets out measurements from PubChem BioAssay (NCI).

Test systems include OVCAR-5 ovarian; HCC-2998 colon; OVCAR-8 ovarian; U251 CNS; K-562 leukemia; SF-268 CNS; TK-10 renal; RPMI-8226 leukemia; SW-620 colon; SR leukemia.
Holding throughout (test): NCI-60 cell line screen, 48 h

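48-hour exposure; five concentrations; linearly interpolated endpoints. GI50 is the concentration that inhibits growth by half. TGI denotes the concentration required for complete inhibition of growth.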

With `O=C(NCCCCCCCCCCCCNC(=O)Nc1cccc2ccccc12)Nc1cccc2ccccc12`, the TGI was determined as 79.6 µM in the assay on OVCAR-5 ovarian; 27.8 µM with HCC-2998 colon; 53.6 µM in the assay with OVCAR-8 ovarian; 31.8 µM in the assay with U251 CNS; 50.5 µM in the assay on K-562 leukemia; 31.3 µM in the assay on SF-268 CNS. The TGI is 31.5 µM in the assay with TK-10 renal, 37.1 µM with RPMI-8226 leukemia, 33.1 µM in the assay with SW-620 colon and 31.7 µM in the assay with SR leukemia.
As for `CSCSSC`, the TGI in the assay with OVCAR-5 ovarian, with HCC-2998 colon, with OVCAR-8 ovarian, in the assay on U251 CNS, in the assay with K-562 leukemia and with SF-268 CNS was greater than 100 µM in each case. Further, the TGI in the assay on TK-10 renal, in the assay with RPMI-8226 leukemia, with SW-620 colon and with SR leukemia was greater than 100 µM throughout.
As for `Cc1cc(F)ccc1S(=O)(=O)Nc1cc(-c2c(O)ccc3ccccc23)c(O)c2ccccc12`, the GI50 in the assay on OVCAR-5 ovarian was 4.55 µM; in the assay with HCC-2998 colon it was 2.17 µM; with OVCAR-8 ovarian it was 3.65 µM; in the assay with U251 CNS it was 3.67 µM; in the assay on K-562 leukemia it was 3.56 µM; in the assay on SF-268 CNS, 3.4 µM. The GI50 is 5.87 µM with TK-10 renal, 2.89 µM with RPMI-8226 leukemia, 2.48 µM in the assay with SW-620 colon and 3.21 µM in the assay with SR leukemia. Also, the TGI was 17.4 µM in the assay with OVCAR-5 ovarian; 4.38 µM in the assay on HCC-2998 colon; greater than 100 µM with OVCAR-8 ovarian; 15.5 µM in the assay with U251 CNS; 13 µM in the assay with K-562 leukemia; 14.3 µM in the assay on SF-268 CNS. Also, the TGI in the assay on TK-10 renal was 17.6 µM; with RPMI-8226 leukemia it was 24 µM; in the assay on SW-620 colon, 11.8 µM; in the assay with SR leukemia, 19.3 µM.
As to `COc1cccc(CCN2CCN(CCCc3ccccc3)CC2)c1`, the TGI in the assay with OVCAR-5 ovarian, in the assay on HCC-2998 colon, in the assay on OVCAR-8 ovarian, in the assay with U251 CNS, with K-562 leukemia and in the assay with SF-268 CNS was greater than 100 µM in each case. For the same compound, the TGI with TK-10 renal, in the assay on RPMI-8226 leukemia, with SW-620 colon and in the assay with SR leukemia was greater than 100 µM in each case.
Turning to `CC(NC(=O)C(NC(=O)CNC(=O)OC(C)(C)C)C(C)C)C(=O)Oc1c(Cl)c(Cl)c(Cl)c(Cl)c1Cl` (stereo not given), the TGI was 31.6 µM with OVCAR-5 ovarian; 39.4 µM in the assay with HCC-2998 colon; 40.8 µM in the assay on OVCAR-8 ovarian; 48.3 µM with U251 CNS; greater than 100 µM in the assay with K-562 leukemia; 65.2 µM with SF-268 CNS. Besides, the TGI in the assay on TK-10 renal was 77.2 µM; with RPMI-8226 leukemia it was greater than 100 µM; in the assay on SW-620 colon, 60 µM; with SR leukemia, greater than 100 µM.
As for `Cc1ccc([S@](=O)c2occc2C=O)cc1`, the TGI in the assay on OVCAR-5 ovarian worked out at 34.7 µM; with HCC-2998 colon, 29.3 µM; in the assay with OVCAR-8 ovarian, 25.4 µM; in the assay on U251 CNS, 27.4 µM; with K-562 leukemia, 4.25 µM; in the assay with SF-268 CNS, 14.9 µM. For the same compound, the TGI in the assay on TK-10 renal is 18.6 µM; in the assay on RPMI-8226 leukemia it was 8.04 µM; in the assay with SW-620 colon, 3.63 µM; in the assay with SR leukemia, 5.08 µM.
With `CCNC(=S)N=Nc1c(O)[nH]c2ccc([N+](=O)[O-])cc12`, the TGI with OVCAR-5 ovarian is greater than 100 µM; in the assay with HCC-2998 colon it was 72.8 µM; in the assay on OVCAR-8 ovarian, greater than 100 µM; in the assay on U251 CNS it was greater than 100 µM; in the assay on K-562 leukemia, greater than 100 µM; in the assay on SF-268 CNS, greater than 100 µM. Moreover, the TGI with TK-10 renal, with RPMI-8226 leukemia, in the assay with SW-620 colon and in the assay on SR leukemia was greater than 100 µM in each case.
As to `NC(=O)NNc1nc(-c2ccccc2)cs1`, the TGI with OVCAR-5 ovarian, in the assay on HCC-2998 colon, with OVCAR-8 ovarian, in the assay with U251 CNS, in the assay on K-562 leukemia and in the assay with SF-268 CNS was greater than 100 µM throughout. In addition, the TGI with TK-10 renal, in the assay on RPMI-8226 leukemia, with SW-620 colon and with SR leukemia was greater than 100 µM in each case.
For `O=[N+]([O-])c1ccc2sc(C=Nc3cnccn3)cc2c1`, the TGI is greater than 100 µM in the assay on OVCAR-5 ovarian; 40.7 µM in the assay with HCC-2998 colon; greater than 100 µM in the assay with OVCAR-8 ovarian; greater than 100 µM in the assay on U251 CNS; 88.6 µM in the assay with K-562 leukemia; greater than 100 µM in the assay on SF-268 CNS. The TGI is greater than 100 µM in the assay with TK-10 renal, 52.9 µM with RPMI-8226 leukemia, greater than 100 µM in the assay with SW-620 colon and 45.5 µM with SR leukemia.
Regarding `C[N+](C)(C)c1ccc(C(N)C(=O)O)cc1` (stereo not given), the TGI in the assay with OVCAR-5 ovarian, with HCC-2998 colon, in the assay with OVCAR-8 ovarian, with U251 CNS, in the assay with K-562 leukemia and with SF-268 CNS was greater than 100 µM each time. Also, the TGI in the assay on TK-10 renal, with RPMI-8226 leukemia, with SW-620 colon and in the assay with SR leukemia was greater than 100 µM in each case.
For the compound `O=C1NC(Nc2ccccc2)=NC(C(F)(F)F)(C(F)(F)F)N1`, the TGI was greater than 100 µM in the assay on OVCAR-5 ovarian; greater than 100 µM in the assay on HCC-2998 colon; greater than 100 µM with OVCAR-8 ovarian; 87.9 µM in the assay on U251 CNS; greater than 100 µM in the assay on K-562 leukemia; greater than 100 µM in the assay with SF-268 CNS. Besides, the TGI in the assay on TK-10 renal, with RPMI-8226 leukemia, in the assay on SW-620 colon and with SR leukemia was greater than 100 µM in each case.
